Tested on: gene promoters in NT2/D1-R1 control and DNMT3B knockdown cells
Experiment: Genome-wide promoter methylation analysis, HumanMethylation27 BeadChip (Table 15)
Type: cell-based, human
Details: sh-ctrl + 5aza; NT2/D1-R1 control cells
Method: DNA methylation analysis was performed in samples in triplicate using the […] […] assay with the HumanMethylation27 BeadChip ([…]) and the BeadChip was scanned on the BeadArray Reader ([…]), according to the manufacturer's instructions. Raw data was normalized and analyzed with Genome Studio software ([…]). The HumanMethylation27 BeadChip assays 27,578 CpGs covering more than 14,000 genes, mostly from promoter regions. […] Hierarchical clustering was performed as stated above. HumanMethylation27 BeadChip data and gene expression microarray data were submitted to NCBI GEO.

## Nc1ncn([C@H]2C[C@H](O)[C@@H](CO)O2)c(=O)n1 [5aza]
  Mean promoter methylation, GALR1 cg04534765: 0.440
  Mean promoter methylation, GCN5L2 cg08434547: 0.555
  Mean promoter methylation, GNAS cg00943909: 0.621
  Mean promoter methylation, HBQ1 cg07703401: 0.587
  Mean promoter methylation, HCN1 cg11285003: 0.369
  Mean promoter methylation, HES6 cg24127874: 0.763
  Mean promoter methylation, HEYL cg25462291: 0.576
  Mean promoter methylation, HRH3 cg08186362: 0.666
  Mean promoter methylation, ICAM1 cg22874046: 0.349
  Mean promoter methylation, ID2 cg23525180: 0.576
  Mean promoter methylation, IGFBP3 cg04796162: 0.501
  Mean promoter methylation, KATNB1 cg15153383: 0.474
  Mean promoter methylation, KCNAB1 cg23873703: 0.548
  Mean promoter methylation, KCNC2 cg18573383: 0.277
  Mean promoter methylation, KIAA1822 cg02867079: 0.842
  Mean promoter methylation, KIAA1840 cg06121469: 0.365
  Mean promoter methylation, KRTCAP2 cg11278262: 0.432
  Mean promoter methylation, LGALS1 cg00292662: 0.493
  Mean promoter methylation, LGR6 cg23578193: 0.423
  Mean promoter methylation, LOX cg06508445: 0.190
  Mean promoter methylation, MAP6D1 cg03705396: 0.522
  Mean promoter methylation, MGC9850 cg21097640: 0.292
  Mean promoter methylation, MRPL38 cg11653266: 0.224
  Mean promoter methylation, MT cg14078309: 0.213
  Mean promoter methylation, MYOD1 cg18555440: 0.561
  Mean promoter methylation, OGG1 cg25415932: 0.526
  Mean promoter methylation, OR10J1 cg25076881: 0.576
  Mean promoter methylation, OSTbeta cg16029760: 0.344
  Mean promoter methylation, PABPC4 cg12585282: 0.296
  Mean promoter methylation, PDE8B cg18089852: 0.203
  Mean promoter methylation, PHLDA2 cg01263716: 0.504
  Mean promoter methylation, PHLDA2 cg04720330: 0.379
  Mean promoter methylation, PIB5PA cg18053607: 0.403
  Mean promoter methylation, PLOD1 cg23286660: 0.468
  Mean promoter methylation, PPCDC cg11632617: 0.523
  Mean promoter methylation, PRDM12 cg09191327: 0.457
  Mean promoter methylation, PRMT8 cg23739862: 0.125
  Mean promoter methylation, PTPRO cg19402885: 0.671
  Mean promoter methylation, PTPRO cg27196745: 0.570
  Mean promoter methylation, R3HDML cg17692403: 0.529
  Mean promoter methylation, RAB37 cg12448933: 0.483
  Mean promoter methylation, RASA4 cg05749161: 0.157
  Mean promoter methylation, RASL11A cg06611744: 0.348
  Mean promoter methylation, SCAMP3 cg01745448: 0.308
  Mean promoter methylation, SCARA5 cg10171125: 0.408
  Mean promoter methylation, SEC14L2 cg14452140: 0.705
  Mean promoter methylation, SH3BGRL3 cg03100146: 0.661
  Mean promoter methylation, SHH cg00577464: 0.433
  Mean promoter methylation, SLC6A5 cg20632573: 0.291
  Mean promoter methylation, SLC25A22 cg02973416: 0.702
  Mean promoter methylation, SLC35C2 cg02413850: 0.254
  Mean promoter methylation, SLIT1 cg07143898: 0.325
  Mean promoter methylation, SORCS3 cg16787600: 0.786
  Mean promoter methylation, SOX15 cg01029592: 0.276
  Mean promoter methylation, SOX15 cg13098960: 0.472
  Mean promoter methylation, SOX17 cg02919422: 0.617
  Mean promoter methylation, STXBP3 cg11666924: 0.260
  Mean promoter methylation, SUSD2 cg23349242: 0.631
  Mean promoter methylation, TBXA2R cg09998229: 0.659
  Mean promoter methylation, THAP3 cg11688219: 0.581
  Mean promoter methylation, TMEM25 cg20001829: 0.424
  Mean promoter methylation, TMEM106C cg25884854: 0.482
  Mean promoter methylation, TRAPPC1 cg01667702: 0.471
  Mean promoter methylation, UBA52 cg24356797: 0.192
  Mean promoter methylation, UNQ2446 cg10574499: 0.619
  Mean promoter methylation, VPREB1 cg18441959: 0.524
  Mean promoter methylation, ZGPAT cg04078896: 0.308
  Mean promoter methylation, ZGPAT cg18611245: 0.736
  Mean promoter methylation, ZNF585B cg03751813: 0.392
  Mean promoter methylation, ZNF702 cg07559730: 0.457

Reference: patent US9476099B2 (TRUSTEES OF DARTMOUTH COLLEGE, priority 2012, dated 2016)
